In brackets after ≈: the same amount, converted by molar mass.
Conditions: buffer; pH 7.4; 200.0 µM

Row | Compound | solubility kinetic [µg/mL]
1 | CCc1nc2ccccc2c(=O)n1-c1ccccc1OC | > 42
2 | Cc1ccc(C(=O)NCCN2CCN(C(=O)c3ccc(C)c(C)c3)CC2)cc1C | 53.1 (≈ 135 µM)
3 | CC(=O)c1ccc(N2CCN(CC(O)c3ccccc3)CC2)cc1 (configuration not stated) | > 48.7
4 | Cc1ccc(NC(=O)Cn2c([N+](=O)[O-])cnc2C)cc1Cl | 1.6 (≈ 5.18 µM)
5 | O=C(CN1CCCC1)Nc1cc(F)ccc1F | 35.1 (≈ 146 µM)
6 | Cc1cccc(C(=O)NC(=S)NCc2ccccc2)c1 | 2.4 (≈ 8.44 µM)
7 | COC(=O)CNc1nc(Cl)nc(N2CCC(C)CC2)n1 | 39.5 (≈ 132 µM)
8 | O=S(=O)(c1cc(F)ccc1F)N1CCC2(CC1)OCCO2 | > 47.9
9 | COc1ccc(CC(=O)Nc2nc3ccccc3[nH]2)cc1 | 0.7 (≈ 2.49 µM)
10 | Fc1ccc(NC(=S)Nc2cccnc2)cc1Cl | > 42.3
11 | O=C(O)c1ccc(N/C(=N\S(=O)(=O)c2ccc(Cl)cc2)c2ccccc2)cc1 | 56.3 (≈ 136 µM)
12 | CC(=O)c1cc2c(cc1NC(=O)c1ccc(Cl)cc1)OCCO2 | < 0.7
13 | COc1ccc(NC(=O)COC(=O)C23CC4CC(CC(O)(C4)C2)C3)cc1Cl | > 59.1
14 | O=C(O)c1ccc2ncsc2c1 | > 26.9
15 | COCCCNc1nc(N)c([N+](=O)[O-])c(NCC2CCCO2)n1 (configuration not stated) | > 49
16 | CCOc1ccc(CCN2CN(CC)CNC2=S)cc1OCC | > 50.6
17 | COc1ccc(C(C)NC(=O)CC23CC4CC(CC(C4)C2)C3)cc1 (configuration not stated) | 19.7 (≈ 60.2 µM)
18 | COc1ccc(OC)c(C(=O)COC(=O)c2ccc([N+](=O)[O-])o2)c1 | > 50.3
19 | NC(=O)c1cnccn1 | > 18.5
20 | CCOCCOc1cccc(C(=O)NC(c2ccccc2)c2ccccc2)c1 | < 0.8
21 | N#C/C(=C\c1ccccc1)C(=O)N1CCN(c2ccccc2F)CC1 | 20.4 (≈ 60.8 µM)
22 | O=C(NC1CC1)C1CC(=O)N(c2ccc(F)cc2)C1 (configuration not stated) | 37.6 (≈ 143 µM)
23 | COc1ccccc1CNCCc1ccc(F)cc1.O=C(O)C(=O)O | > 52.4
24 | CCc1ccc(S(=O)(=O)NC2CC(C)(C)NC(C)(C)C2)cc1 | 35.8 (≈ 110 µM)

Row | Compound | solubility kinetic [µg/mL]
25 | Cc1cc(OCCCn2ccnc2)cc(C(C)C)c1 | 23.3 (≈ 90.2 µM)
26 | O=C1CCCC2=C1C(c1cccs1)CC(=O)N2c1ccc(F)cc1 (configuration not stated) | 40.7 (≈ 119 µM)
27 | O=S(=O)(c1cc(Cl)ccc1Cl)N1CCc2ccccc21 | < 0.7
28 | Nc1nc(Nc2ccccc2F)nc(NC2CCCCC2)c1[N+](=O)[O-] | < 0.1
29 | Nc1cc(=O)[nH]c(SCC(=O)NCCC2=CCCCC2)n1 | > 46.3
30 | O=C(COC(=O)c1ccccc1Cl)NC1CCCCCC1 | 29.5 (≈ 95.2 µM)
31 | Cc1cc(NC(=O)Nc2c[nH]c(=O)[nH]c2=O)ccc1Br | 1.8 (≈ 5.31 µM)
32 | O=C(Cc1cccc2ccccc12)NCC(=O)Nc1ccccc1F | 10.6 (≈ 31.5 µM)
33 | Cc1nc(N2CCOCC2)[nH]c(=O)c1C(O)C(Cl)(Cl)Cl (configuration not stated) | 47.1 (≈ 137 µM)
34 | Cc1cc(C)c(C)c(S(=O)(=O)Nc2ccccc2N2CCOCC2)c1C | 1.7 (≈ 4.54 µM)
35 | COC(=O)c1cccc(Nc2ccc([N+](=O)[O-])cn2)c1 | 0.3 (≈ 1.1 µM)
36 | CCOC(=O)N1CCC(NC(=O)c2cccs2)CC1 | 37.8 (≈ 134 µM)
37 | Cc1ccccc1NC(=O)NC1CCCc2ccccc21 (configuration not stated) | 0.9 (≈ 3.21 µM)
38 | CCOC(=O)c1c(C)[nH]c(C(=O)OCC(=O)NCc2ccc(C)cc2)c1C | 2.6 (≈ 6.98 µM)
39 | Cc1cc(C)nc(SCC(=O)c2ccc(C)c(C)c2)n1 | 19.3 (≈ 67.4 µM)
40 | Cc1ccc(C)c(Cn2cnc3c(oc4ccccc43)c2=O)c1 | < 0.3
41 | CCOCCCNC(=O)N[C@H](C(=O)OC)C(C)CC (some centres not stated) | > 41.2
42 | Cc1cc(OC(C)C(=O)Nc2ccncc2)ccc1Cl (configuration not stated) | > 43.6
43 | O=C(O)COCC(=O)Nc1ccc(OCCc2ccccc2)cc1 | 45.4 (≈ 138 µM)
44 | Cc1nc2sc3c(c2c(=O)n1NC(=O)CCl)CCCC3 | > 46.8
45 | CSCCC(NC(=O)c1ccco1)C(=O)Nc1ccncc1 (configuration not stated) | > 47.9
46 | O=C(NC1CC(=O)N(c2ccccc2)C1)C1CC1 (configuration not stated) | > 36.6
47 | Cn1c(N)c(C(=O)COC(=O)COc2cccc(Br)c2)c(=O)n(C)c1=O | 11.3 (≈ 26.5 µM)
48 | COC(=O)/C=C/c1c(C)nc(NCc2ccccc2)nc1Cl | > 47.7

Row | Compound | solubility kinetic [µg/mL]
49 | O=C(CSc1nccc(=O)[nH]1)NCc1ccco1 | > 39.8
50 | O=C(c1ccccc1)N1CCCC(C(=O)N2CCCCC2)C1 (configuration not stated) | > 45.1
51 | COc1cccc2c(Cl)c(CCCl)c(C)nc12 | 1.1 (≈ 4.07 µM)
52 | Cc1cccc(Nc2nc(-c3ccccc3)cs2)n1 | 0.3 (≈ 1.12 µM)
53 | Cc1cc(C)cc(N2C(=O)CSC2c2ccccn2)c1 (configuration not stated) | > 42.7
54 | CC12CCC(C(=O)N3CCOCC3)([C@H](Br)C1=O)C2(C)C (some centres not stated) | > 51.6
55 | O=S(=O)([N-]c1nc2ccccc2nc1-[n+]1ccccc1)c1ccc(F)cc1 | 50.3 (≈ 132 µM)
56 | Cc1cc(C(=O)COc2cc(F)ccc2[N+](=O)[O-])c(C)n1C1CC1 | 3.3 (≈ 9.93 µM)
57 | COc1ccc(NC(=O)CNC(=O)Cc2cccc3ccccc23)cc1 | 4.3 (≈ 12.3 µM)
58 | COc1cc(C)c(Cl)cc1S(=O)(=O)NCc1ccccn1 | 34.5 (≈ 106 µM)
59 | CCOC(=O)C(NC(C)=O)C(O)c1ccc([N+](=O)[O-])cc1 (configuration not stated) | 43.2 (≈ 146 µM)
60 | Cc1ccc(S(=O)(=O)Nc2cccc(C(=O)NCC(c3ccc(F)cc3)N3CCOCC3)c2)cc1 (configuration not stated) | 58.2 (≈ 117 µM)
61 | N#Cc1ccsc1NC(=O)C1=COCCO1 | > 35.4
62 | Cn1c(=O)c2c(O)c(C=Nc3ccc(F)cc3)c(=O)n(C)c2n(C)c1=O | 32.6 (≈ 91 µM)
63 | Cc1c(NS(=O)(=O)c2cccc(C(=O)N3CCC(C(N)=O)CC3)c2)c(=O)n(-c2ccccc2)n1C | > 74.6
64 | CC(=O)Nc1ccc(S(=O)(=O)NCC(=O)Nc2ccc3c(c2)OCO3)cc1 | > 58.7
65 | Cc1cccc(OCC(=O)Nc2ccccc2F)c1 | 13.4 (≈ 51.7 µM)
66 | COc1ccc(CNC(=O)Cn2ccc([N+](=O)[O-])n2)cc1OC | > 48
67 | COc1ccc(C(=O)Nc2ccc(NC(=O)C3CC3)cn2)cc1 | 5.8 (≈ 18.6 µM)
68 | O=C(/C=C/c1ccccc1)OCC(=O)c1c[nH]c2ccccc12 | 3.9 (≈ 12.8 µM)
69 | O=C(CCc1nc(-c2ccc(Cl)cc2)no1)NC1CCCC1 | 6.4 (≈ 20 µM)
70 | c1ccc(N2CCN(CC3CCCCC3)CC2)cc1 | 17 (≈ 65.8 µM)
71 | CS(=O)(=O)N1Cc2ccccc2CC1C(=O)O (configuration not stated) | > 38.3
72 | CC1CC(=O)N(c2ccc(Br)cc2)C(=O)C1 | > 42.3

Row | Compound | solubility kinetic [µg/mL]
73 | C=CCNC(=O)COC(=O)c1ccc(Cl)c(S(N)(=O)=O)c1 | > 49.9
74 | Cc1ccnc(NCc2c(O)ccc3ccccc23)c1 | 9.2 (≈ 34.8 µM)
75 | COc1ccc(C)cc1S(=O)(=O)n1c([N+](=O)[O-])cnc1C | > 46.7
76 | CCN(C(=O)Cn1c(Cl)nc2c1c(=O)n(C)c(=O)n2C)C1CCCCC1 | > 57.3
77 | Cc1cc(C(=O)Cn2c(CO)nc3ccccc32)c(C)n1C | > 44.6
78 | O=[N+]([O-])c1cncc([N+](=O)[O-])c1Nc1cccc(O)c1 | > 41.4
79 | CC(C)C1C(=O)CC(c2ccccc2)NC1c1ccccc1 (configuration not stated) | 1.6 (≈ 5.45 µM)
80 | CC(=O)Cc1nsc(NC(=O)c2ccc(F)cc2)n1 | > 41.9
81 | C#CC1(NC(=O)NC(=O)c2c(F)cccc2F)CCCCC1 | 0.6 (≈ 1.96 µM)
82 | COc1cc2c(cc1OC)-c1cc(Nc3cccc(C)c3)nc(=O)n1CC2 | 2.5 (≈ 6.88 µM)
83 | Cc1c(C(=O)OCC(=O)N2C(C)CCCC2C)oc2ccccc12 (configuration not stated) | 44.1 (≈ 134 µM)
84 | O=C(O)c1ccc(SCc2ccccc2)nc1 | > 36.8
85 | O=C(CSc1ncccn1)N1CCCc2ccccc21 | > 42.8
86 | O=C(c1ccc(OC(F)(F)F)cc1)c1ncc[nH]1 | 37.2 (≈ 145 µM)
87 | O=C1c2ccsc2SCCN1Cc1cccc(F)c1 | 42.6 (≈ 145 µM)
88 | CSc1ccccc1NC(=O)c1ccc([N+](=O)[O-])cc1 | 15.9 (≈ 55.1 µM)
89 | COc1ccc(S(=O)(=O)NC(Cc2ccccc2)C(=O)O)cc1 (configuration not stated) | > 50.3
90 | CN(C(=O)c1ccc(Cl)cc1)C1CCS(=O)(=O)C1 (configuration not stated) | 41.2 (≈ 143 µM)
91 | O=C(CSc1ccccc1C(=O)O)NC12CC3CC(CC(C3)C1)C2 | > 51.8
92 | CCOc1ccc(/C=C\c2nc(O)c([N+](=O)[O-])c(=O)[nH]2)cc1OCC | 29 (≈ 83.5 µM)
93 | O=C(COC(=O)CSc1ccccc1)Nc1ccc(F)cc1F | > 50.6
94 | CC(C)c1ccc(N(CC(=O)N2CCOCC2)S(C)(=O)=O)cc1 | 32.9 (≈ 96.6 µM)
95 | CCOC(=O)c1c(NCCN(C)C)c2ccccc2[nH]c1=O | > 45.5
96 | O=C(COc1ccccc1Cl)NCCNC(=O)c1ccccn1 | > 50.1

Row | Compound | solubility kinetic [µg/mL]
97 | CN(C)CCCN1C(=O)CSC1c1ccc([N+](=O)[O-])cc1.Cl (configuration not stated) | 47.6
98 | COc1ccc(C(C)C)cc1S(=O)(=O)NC1CCCC1 | 3 (≈ 10.1 µM)
99 | Cc1cnc(C(=O)NCCc2ccc(C(F)(F)F)cc2)cn1 | 11.9 (≈ 38.5 µM)
100 | COc1ccc(CCNC(=O)CCc2cn(C)c3ccccc23)c(OC)c1 | 16.9 (≈ 46.1 µM)
101 | CCCN1C(=O)C2(OCCO2)c2cc(Cl)ccc21 | > 40.2
102 | CN1N=C(C(=O)Nc2ccc3c(c2)CCC3)CCC1=O | > 40.7
103 | COCCN(CCOC)C(=O)N1CCOCC1 | > 36.9
104 | Cc1ccc(C(=O)NCN2CCN(c3ccc(F)cc3)CC2)cc1 | > 49.1
105 | CN(Cc1c(F)cccc1Cl)C(=O)c1ccc2ccccc2n1 | > 49.3
106 | O=C(Oc1ccccc1)c1cccnc1Oc1ccccc1 | 20.7 (≈ 71.1 µM)
107 | COCCN(CC(=O)Nc1cccc(C)c1C)C(=O)Cc1ccsc1 | > 54.1
108 | Cc1cc(C)n2nc(SC(C)C(=O)N3CC(C)OC(C)C3)nc2n1 (configuration not stated) | > 52.4
109 | COC(=O)c1sccc1NC(=O)Nc1cc(C)cc(C)c1 | 2.7 (≈ 8.87 µM)
110 | COc1ccc(OC2CCN(C(=O)Nc3ccc(C)cc3)CC2)cc1 | 0.4 (≈ 1.18 µM)
111 | CC(=O)Nc1ccc2c(COC(=O)[C@@H](NS(=O)(=O)c3ccc(C)cc3)C(C)C)cc(=O)oc2c1 | 8.6 (≈ 17.7 µM)
112 | CN(C)C(=O)C[n+]1ccc(C(N)=O)cc1.[Cl-] | 35.4
113 | NC(=O)C1CCCN1 (configuration not stated) | > 17.1
114 | CN(CC(=O)O)S(=O)(=O)c1ccc2[nH]c(=O)c(=O)[nH]c2c1 | > 47
115 | CCOC(=O)/C=C1\SCC(=O)N1CC(=O)Nc1cc(S(=O)(=O)N(C)C)ccc1C | 26.2 (≈ 59.3 µM)
116 | CC(=O)Nc1ccc(NC(=O)C2(C)CC2(Cl)Cl)cc1 (configuration not stated) | > 45.2
117 | CCOC(=O)c1nc2c(=O)n(C)c(=O)n(C)c2n(C)c1=O | > 44.1

Reference: PubChem BioAssay AID1996
